Results taken from US9989535B2, “Methods and reagents for analyzing protein-protein interfaces” (Warp Drive Bio, Inc., priority 2015, dated 2018).

How the values were obtained:
Type in all cases: binding
KRASGTP/S39C lite = biological target: T1, KRASGTP/S39C lite (Homo sapiens, UniProt P01116, C118S/C51S/C80L/G12V/S39C); test: Formation of KRASGTP/S39C lite/C2-FK506 conjugates, SDS-PAGE
T1 construct: residues 1-169 containing G12V/S39C/C51S/C80L/C118S; made in house
Procedure: (§1) Experimental Protocol: A 1:2 molar ratio of target protein and compound are mixed together in 12.5 mM HEPES pH 7.4, 75 mM NaCl buffer containing 2% DMSO. The reaction is incubated at 37° C. for 30 min, followed by overnight incubation at room temperature. Cross-linking efficiency is assessed by SDS-PAGE gel. Conjugates migrate slower than non-cross-linked target protein. For thiol reactive compounds, the Cys specific attachment of the compound to the target protein can be further confirmed by SDS-PAGE after the addition of 100 mM DTT to the reaction mixture, which reduces the conjugate back into its components.
Experimental Protocol: A 1:2 molar ratio of KRASGTP/S39C lite and C2-FK506 are mixed together in 12.5 mM HEPES pH 7.4, 75 mM NaCl buffer containing 2% DMSO. The reaction is incubated at 37° C. for 30 min, followed by overnight incubation at room temperature. Cross-linking efficiency is assessed by SDS-PAGE gel. Attachment of C2-FK506 to Cysteine 39 on KRASGTP/S39C lite is also assessed by incubation of the reaction mixture with 100 mM DTT.

KRASGTP/S39C lite/FKBP12 = biological target: T2, KRASGTP/S39C lite/FKBP12 (Homo sapiens, UniProt P01116+P62942, C118S/C51S/C80L/G12V/S39C); test: Ternary complex formation by SEC and SDS-PAGE; conditions: SEC profile and SDS-PAGE of elution peaks
T2 construct: residues 1-169 containing G12V/S39C/C51S/C80L/C118S; made in house
Procedure: (§2) A 1:2:2 molar ratio of compound, presenter protein, and target protein are mixed together in 12.5 mM HEPES pH 7.4, 75 mM NaCl buffer containing 2% DMSO. The reaction is incubated at 37° C. for 30 min, followed by overnight incubation at room temperature. Pure complex is isolated by Size Exclusion Chromatography (SEC) purification. The reaction mixture is directly injected on a Superdex 75 column (CV 120 mL) pre-equilibrated with buffer containing 12.5 mM HEPES pH 7.4, 75 mM NaCl. Complex elutes at a higher molecular weight than unreacted target protein and presenter protein. To confirm presence of complex in the elution peak, samples are assessed by SDS-PAGE.
(§3) The reaction is incubated at 37° C. for 30 min, followed by overnight incubation at room temperature. Pure complex is isolated by Size Exclusion Chromatography (SEC) purification. The reaction mixture is directly injected on a Superdex 75 column (CV 120 mL) pre-equilibrated with buffer containing 12.5 mM HEPES pH 7.4, 75 mM NaCl. Complex elutes at around 69 mL post injection and unreacted KRASGTP/S39C lite and FKBP12 elutes at around 75 mL and 87 mL post injection respectively. To confirm the presence of KRASGTP/S39C lite and FKBP12 in the elution peak, samples are also assessed by SDS-PAGE.

KRASGTP/G12C [1] = biological target: T3, KRASGTP/G12C (Homo sapiens, UniProt P01116+P62942, G12C); test: Disulfide cross-linking efficiency by mass spectrometry, with or without FKBP12; conditions: 2 μM KRAS, 10 μM ligand, 4 hours RT, MS
T3 construct: KRASGTP/G12C (in-house, residues 1-169); made in house
Procedure: Experimental protocol: In order to follow the kinetics of disulfide crosslinking reactions, Agilent 6230 TOF-LC/MS and Agilent 1260 HPLC instruments employing a AdvanceBio RP-mAb C4 column (2.1×100 mm, 3.5 μm) and equipped with an auto-sampler were used. HPLC grade acetonitrile and water (each containing 1.0 mM ammonium formate and 1% formic acid by volume) were used as mobile phase with the following ramp: 0.6 ml/min flow rate, water:acetonitrile=95:5 from 0.0 to 13.0 min ramping to water:acetonitrile=5:95 from 13.0 to 17.0 min. Total time=17.0 min.
All crosslinking reactions were performed in 1.5 mL amber colored glass vials equipped with 0.5 mL glass inserts. A water-soluble peptide (SEQ ID NO: 1: […]) was employed as an internal standard. Although the actual sequence of the internal standard is inconsequential, choice of amino acid residues were critical to avoid interference in the crosslinking assays. […] All reactions and standard solutions were prepared in HEPES (pH 7.4, 1.0 mM MgCl2) buffer.
Prior to every reaction, a standard curve was obtained for the individual components using a series of standard solutions (an example of standard curve analysis for FKBP12 is shown in Table 3 below). Using the data from standard curve, μmol of protein samples were plotted against the ratio of areas (sample:std) and a linear fit (y=mx+c) was employed to obtain the slope and intercept. The value of slope and intercept involved in these standard curves were accounted for during evaluation of the substrate and product concentration before and during the course of the reaction. For every substrate/product, an initial injection was followed up by a blank injection to verify presence of any residual protein/reagents. Based on this analysis the sequence of auto-sampler can be adjusted to included appropriate number of blank injections for removal of residual components, if any. The MS spectra were analyzed using Agilent MassHunter v B.07.0 software.
In a representative experiment to assess the presenter dependency of ligand cross-linking on the target protein, KRASGTP/G12C and either C3- or C4-SLF ligand were incubated in the presence or absence of FKBP12 at concentrations of 2 μM KRAS, 10 μM FKBP12, 10 μM C3- or C4-SLF for 4 hours at room temperature in 12.5 mM HEPES pH 7.4, 75 mM NaCl, 1 mM MgCl2, 3% DMSO. Analysis of the amount of KRAS undergoing disulfide cross-linking with the ligand using the method above.

KRASGTP/G12C [2] = biological target: T3, KRASGTP/G12C; test: Cross-linking gel shift assay (12% SDS-PAGE), with or without FKBP12; conditions: 60 μM KRAS, 180 μM FKBP12, 180 μM ligand, quenched by MMTS
Procedure: In parallel to mass spectrometry analysis, cross-linking reactions with C3- or C4-SLF were subjected to gel shift assay using 12% SDS-PAGE in the presence or absence of FKBP12 at the same experimental condition described above except that cross-linking reactions were set up at higher concentrations (60 μM KRAS, 180 μM FKBP12, and 180 μM C3- or C4-SLF) and they were quenched by MMTS to terminate the reaction.

[3] = biological target: T4, KRASGDP/S39C lite/CypAC52S (Homo sapiens, UniProt P01116+P62937, C118S/C51S/C52S/C80L/G12V/S39C); test: Ternary complex formation by SEC and SDS-PAGE; conditions: SEC profile and SDS-PAGE of elution peaks
T4 construct: residues 1-169 containing G12V/S39C/C51S/C80L/C118S; made in house
Procedure: as §2
as §3, with “KRASGDP/S39C” for “KRASGTP/S39C”, “CypAC52S” for “FKBP12”, “80” for “87”

KRASGTP/G12C lite = biological target: T5, KRASGTP/G12C lite (Homo sapiens, UniProt P01116, C118S/C51S/C80L/G12C); test: Formation of KRASGTP/G12C lite/SFAX9DS conjugates, SDS-PAGE; conditions: 1:2 protein:compound
T5 construct: residues 1-169 containing G12C/C51S/C80L/C118S; made in house
Procedure: as §1
(§4) Experimental Protocol: A 1:2 molar ratio of KRASGTP/G12C lite and SFAX9DS are mixed together in 12.5 mM HEPES pH 7.4, 75 mM NaCl buffer containing 2% DMSO. The reaction is incubated at 37° C. for 30 min, followed by overnight incubation at room temperature. Cross-linking efficiency is assessed by SDS-PAGE gel. Wild-type CypA also cross-linked with the compound. Cysteine 52 as a reactive Cysteine on CypA and was mutated to Serine to abrogate presenter cross-linking.

CypAC52S = biological target: T6, CypAC52S (Homo sapiens, UniProt P62937, C52S); test: Presenter cross-linking with SFAX9DS, SDS-PAGE
T6 construct: made in house
T6 sequence (P62937 whole entry C52S): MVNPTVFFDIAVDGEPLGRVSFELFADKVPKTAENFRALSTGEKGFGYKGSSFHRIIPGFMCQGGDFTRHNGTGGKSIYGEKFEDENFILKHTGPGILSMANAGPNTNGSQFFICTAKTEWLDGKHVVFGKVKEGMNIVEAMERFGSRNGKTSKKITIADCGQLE
Procedure: as §4

CO[C@H]1C[C@@H](C)C/C(C)=C/[C@@H](CCCC(=O)NCCSSc2ccccn2)C(=O)C[C@H](O)[C@@H](C)[C@@H](/C(C)=C/[C@@H]2CC[C@@H](O)[C@H](OC)C2)OC(=O)[C@@H]2CCCCN2C(=O)C(=O)[C@]2(O)O[C@H]1[C@@H](OC)C[C@H]2C [Compound C2-FK506]
Cross-linking efficiency with KRASGTP/S39C lite (KRASGTP/S39C lite; 1:2 protein:compound, 37° C. 30 min then overnight RT): cross-links efficiently | Site specificity of attachment (KRASGTP/S39C lite; reaction mixture + 100 mM DTT): specific for Cysteine 39

CCC(C)(C)C(=O)C(=O)N1CCCC[C@H]1C(=O)OCCCC(=O)NCCSSc1ccccn1 [Compound C2-Holt]
Formation of KRASGTP/S39C lite/C2-Holt/FKBP12 complex (KRASGTP/S39C lite/FKBP12): confirm the formation

CCC(C)(C)C(=O)C(=O)N1CCCC[C@H]1C(=O)O[C@H](CCc1ccc(OC)c(OC)c1)c1cccc(NC(=O)CCCSSc2ccccn2)c1 [Compound C4-SLF, (R)-3-(3,4-dimethoxyphenyl)-1-(3-(4-(pyridin-2-yldisulfanyl)butanamido)phenyl)propyl (S)-1-(3,3-dimethyl-2-oxopentanoyl)piperidine-2-carboxylate]
% × link to KRAS (KRASGTP/G12C [1]; FKBP12 absent (−)): 7.0% | % × link to KRAS (KRASGTP/G12C [1]; FKBP12 present (+) 10 μM): 69.8% | Ligand cross-linking efficiency in the presence of FKBP12, gel shift (KRASGTP/G12C [2]): boosted significantly

COC(=O)[C@@H]1CCCN(C(=O)[C@H](Cc2cccc(O)c2)NC(=O)[C@@H](NC(=O)CCCSSc2ccccn2)C(C)C)N1 [SFAC4DS, methyl (S)-1-((S)-3-(3-hydroxyphenyl)-2-((S)-3-methyl-2-(4-(pyridin-2-yldisulfanyl)butanamido)butanamido)propanoyl)hexahydropyridazine-3-carboxylate]
Formation of KRASGDP/S39C lite/SFAC4DS/CypAC52S complex [3]: confirm the formation

COC(=O)[C@@H]1CCCN(C(=O)[C@H](Cc2cccc(O)c2)NC(=O)[C@@H](NC(=O)CCOCCOCCSSc2ccccn2)C(C)C)N1 [SFAX9DS]
Cross-linking efficiency with KRASGTP/G12C lite (KRASGTP/G12C lite): cross-links efficiently | Cross-linking of presenter CypAC52S to compound (CypAC52S): does not cross-link
